{
  "source": "patent US20210379106A1",
  "about": "“OXABICYCLOHEPTANES FOR ENHANCING CAR T CELL FUNCTION” (Lixte Biotechnology, Inc., priority 2018, published 2021)",
  "key": {"solid tumor": {"test_system": "solid tumor", "details": "largest phase 1 trial, cited from earlier work"}, "[1]": {"test_system": "cell lines from a variety of human solid tumors", "details": "cited from earlier work"}, "PP2A": {"biological_target": "PP2A (Homo sapiens, UniProt P67775)", "sequence (P67775 whole entry)": "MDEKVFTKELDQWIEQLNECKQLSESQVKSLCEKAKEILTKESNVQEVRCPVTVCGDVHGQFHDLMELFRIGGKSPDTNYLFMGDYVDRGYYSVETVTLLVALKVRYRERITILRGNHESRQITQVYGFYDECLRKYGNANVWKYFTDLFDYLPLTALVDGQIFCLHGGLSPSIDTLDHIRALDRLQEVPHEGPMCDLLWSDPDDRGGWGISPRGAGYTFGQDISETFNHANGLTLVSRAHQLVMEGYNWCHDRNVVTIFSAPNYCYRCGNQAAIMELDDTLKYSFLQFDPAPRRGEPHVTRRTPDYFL", "details": "cited from earlier work"}, "CD19 CAR T cells": {"test_system": "CD19 CAR T cells", "test": "IFNγ intracellular staining / flow cytometry of CD19CAR T cells after co-culture with CD19+ tumor cells", "type": "cell-based", "details": "for percentage of CAR+/CD8+/INFγ+: 0.5 μM LB-100, 1.0 μg/mL Nivo", "method": "FIG. 1. Generation of CD19 CAR T cells PBMC from healthy donor were activated with CD3/CD28 beads and transduced with lentivirus encoding second generation of CD19CAR containing costimulatory signaling CD28. After 14 days of ex vivo expansion, percentages of CD8 and CAR positive T cells were determined by flow cytometry.\n(§1) FIG. 2. […] Post treatment, 0.1×10^6 CD19 CART cells were then co-cultured with 0.1×10^6 different CD19+ tumor cells for 24 hours followed by surface staining of CAR and CD8 and intracellular staining of IFN-γ. Percentages of IFNγ+CD8+ CAR T cells in gated CAR positive population are presented.\nFIG. 3. […] Post treatment, 0.1×10^6 CD19CAR T cells were then co-cultured with 0.1×10^6 CD19+Daudi lymphoma cells for 24 hours followed by surface staining of CAR and CD8 and intracellular staining of IFN-γ. Percentages of IFN-γ+CD8+ CAR T cells (A) and FACS plots (B) in gated CAR positive population are presented.\nas §1, with “4.” for “2.”, “CD19CAR T” for “CD19 CART”, “IFN-γ. Myeloid leukemic cells (KG1a) were used as negative control.” for “IFN-γ.”, “IFN-γ+CD8+” for “IFNγ+CD8+”\nWe assessed the effects of LB-100 and Nivo on CD19 CART cell function. Propagated CD19CAR T cells were stimulated with dynal beads coated with antibody against CD19 (FMC63) at 1:1 ratio for five days and cultured under the following conditions: CD19CAR T cell alone, CD19CAR+ 0.5 μM LB-100, CD19CAR+ 1.0 μg/mL Nivo, and CD19CAR with combination of LB-100 and Nivo. Drugs were supplemented into the culture every other day. Functional assay was performed six days after treatment. The cells were then co-cultured with the different CD19+ ALL cells SupB15 and different lymphoma Daudi and Raji cells overnight. Cells were then stained for Interferon-gamma (IFNγ) followed by flow cytometry analysis. Acute myeloid leukemia (AML) cells KG1a were used as negative controls. […] To test the antitumor activity of the combinatorial therapy in vivo we established an acute lymphoid leukemia (ALL) model by inoculating SupB15-GFP-ffluc cells into NSG mice, 5 days after tumor engraftment, mice were treated with CD19CAR T cells by intravenous injection, along with intraperitoneally injections of LB100 (4 μg/mouse), Nivo (200 μgm/mouse) or LB100+Nivo every other day as combination therapy."}},
  "data": [
    {"smiles": "C[C@@](O)(/C=C/[C@H]1CC=CC(=O)O1)[C@@H](C[C@@H](O)\\C=C/C=C\\C=C\\CO)OP(=O)(O)O", "note": "[fostriecin, Fostriecin]", "values": [
      {"measurement": "dose-limiting toxicity (DLT)", "setting": "solid tumor; 46 solid tumor patients", "result": "without dose-limiting toxicity"},
      {"measurement": "disease stability, share of solid tumor patients", "setting": "solid tumor; 16 of 46 patients", "result": 34.8, "unit": "%"}
    ]},
    {"smiles": "CCN1CCCC1CNC(=O)c1cc(S(=O)(=O)CC)c(NC)cc1OC", "note": "(stereo not shown) [LB-102]", "values": [
      {"measurement": "proliferation of cell lines", "setting": "[1]", "result": "inhibit proliferation"}
    ]},
    {"smiles": "C[C@@]12C(=O)OC(=O)[C@]1(C)[C@H]1CC[C@@H]2O1", "note": "[Cantharidin]", "values": [
      {"measurement": "inhibition of PP2A", "setting": "PP2A", "result": "potent inhibitor of PP2A"}
    ]},
    {"smiles": "CN1CCN(C(=O)C2C(C(=O)O)[C@H]3CC[C@@H]2O3)CC1", "note": "(stereo partly shown) [LB-100]", "values": [
      {"measurement": "inhibition of PP2A", "setting": "PP2A", "result": "potent inhibitor of PP2A"},
      {"measurement": "proliferation of cell lines", "setting": "[1]", "result": "inhibit proliferation"},
      {"measurement": "effector function of CD19CAR T cells (IFNγ+CD8+ CAR T cells)", "setting": "CD19 CAR T cells; FIG. 2, CD19 antibody coated beads, different concentrations of LB100 on days 1, 3 and 5, different CD19+ tumor cells 24 hours", "result": "improves effector function of CD19CAR T cells in a dose dependent manner"},
      {"measurement": "percentage of CAR+/CD8+/INFγ+", "setting": "CD19 CAR T cells; co-cultured with Daudi cells overnight, CD19 antibody bead stimulation", "result": 10.99, "unit": "%"},
      {"measurement": "percentage of CAR+/CD8+/INFγ+", "setting": "CD19 CAR T cells; co-cultured with Raji cells overnight, CD19 antibody bead stimulation", "result": 10.30, "unit": "%"},
      {"measurement": "percentage of CAR+/CD8+/INFγ+", "setting": "CD19 CAR T cells; co-cultured with SupB15 cells overnight, CD19 antibody bead stimulation", "result": 10.14, "unit": "%"},
      {"measurement": "percentage of CAR+/CD8+/INFγ+", "setting": "CD19 CAR T cells; corresponding treatment, co-cultured with KG1A AML cells (negative control)", "result": 6.33, "unit": "%"},
      {"measurement": "percentage of CAR+/CD8+/INFγ+", "setting": "CD19 CAR T cells; corresponding treatment, media alone (no tumor cells)", "result": 7.28, "unit": "%"}
    ]},
    {"smiles": "O=C1OC(=O)[C@H]2[C@@H]1[C@@H]1CC[C@H]2O1", "note": "[norcantharidin]", "values": [
      {"measurement": "inhibition of PP2A", "setting": "PP2A", "result": "potent inhibitorsof PP2A"}
    ]}
  ]
}
